# Measured values published in paper PMC8165439, “Chymase Dependent Pathway of Angiotensin II Generation and Rapeseed Derived Peptides for Antihypertensive Treatment of Spontaneously Hypertensive Rats” (Frontiers in Pharmacology, 2021).
# Entries after “also recorded” stand apart in the source; their conditions may differ.
# Key:
# Type in all cases: in vivo, rat
# [1] = tested on: spontaneously hypertensive rats (SHR); experiment: Chronic iv treatment, systolic blood pressure by telemetry
# Source text: Implantation of the telemetry transmitters for BP measurement: Seven days before the start of the chronic experiment all rats were implanted with telemetry probes for blood pressure monitoring (Data Science International, St. Paul, MN, United States). The transmitters (TA11PA-C10 dedicated for young animals or TA11PA-C40 for adult rats, Data Science International, St. Paul, MN, United States), were implanted under aseptic conditions, under sodium pentobarbital anesthesia (Sodium Pentobarbital, dose: 50 mg/kg ip, Biowet, Pulawy, Poland). The transmitter’s cannula was implanted into the aorta and transmitter’s body was placed inside the peritoneal cavity and fixed to the abdominal muscle wall. Metacam (0.4 mg/kg BW, Boehringer, Ingelheim, Germany) and Baytril (10 mg/kg BW, Bayer, Leverkusen, Germany) were used as post-operative analgesia and to prevent infection, respectively.
# Implantation of cannulas for intravenous administration of selected substances: Four days before the start of the chronic experiment, the femoral vein was cannulated for chronic administration of the substances (Micro-Renathane MRE033, BIOSEB-In Vivo Research Instruments, United States/Canada), and the femoral artery was cannulated for blood sampling (Micro-Renathane Tubing MRE-025 and MRE033, BIOSEB-In Vivo Research Instruments, United States/Canada, respectively in young and adult rats). Both cannulas were filled with 4% Citra-Lock solution (Dirinco B.V, Ketelmeer 1, 5347 JX Oss, Netherlands) to prevent blood clotting and inflammation. After the surgery the post-operative treatment was applied as that for telemetric probe implantation.
# Systolic and diastolic blood pressure (SBP and DBP, respectively) and heart rate (HR) were measured in conscious unrestrained rats by telemetry technique, once a week for 24 h. […] The diuresis, weight of feces, food and water intake were measured; urine and blood samples were collected on day 0, 7th and 14th, and were centrifuged at 1200 g (blood for 15 min and urine for 5 min), then the samples were stored at –80°C until analysis. […]
# [2] = tested on: spontaneously hypertensive rats (SHR); experiment: Left ventricular hypertrophy (LV/tibia) after chronic treatment; conditions: after 14 days daily iv CH 2, RIY 7.5, VWIS 12.5 mg/kg/day, mean ± SEM, n = 5
# Description: After the chronic experiment rats were anesthetized with sodium thiopental (100 mg/kg, ip, Sandoz GmbH, Kundl, Austria) and the heart, kidney and tibia were harvested for morphologic analysis. Additionally, left ventricular hypertrophy was assessed: the hearts were immediately harvested, dried with filter paper, and weighed. Then the left ventricle (LV) was carefully excised and weighed again. Left ventricular hypertrophy was assessed based on the ratio of LV mass to tibia length (LV/tibia).
# [3] = tested on: spontaneously hypertensive rats (SHR); experiment: Metabolic parameters in metabolic cages during chronic treatment; conditions: mean ± SEM
# Description: (§1) Systolic and diastolic blood pressure (SBP and DBP, respectively) and heart rate (HR) were measured in conscious unrestrained rats by telemetry technique, once a week for 24 h. 24 hour observations in metabolic cages (Tecniplast S. p.A. Buguggiate, Italy) were performed weekly. The diuresis, weight of feces, food and water intake were measured; urine and blood samples were collected on day 0, 7th and 14th, and were centrifuged at 1200 g (blood for 15 min and urine for 5 min), then the samples were stored at –80°C until analysis.
# (§2) On day 0 all animals received saline (0.9% NaCl) and then, for 14 consecutive days, the substance tested. Chymostatin (CH, 2 mg/kg/day) was dissolved in DMSO and then diluted with PBS (final concentration of DMSO was 0.15%). Peptides RIY (7.5 mg/kg/day) and VWIS (12.5 mg/kg/day) were dissolved in saline (0.9% NaCl, S). The substances were administered through the femoral vein during 10 min in the volume of 0.5 ml to young SHR (infusion rate: 3 ml/h) and 1 ml to adult rats (infusion rate: 6 ml/h). Control rats received solvents (either DMSO or saline) in the same volume.
# (§3) Urine volume was determined by gravimetric method. Sodium and potassium concentration in urine and plasma were measured by flame photometry (PFP7/C, Jenway Ltd, Stone, United Kingdom). Urine and plasma osmolality were measured by freezing point depression (Osmomat® 030 M, Gonotec, Berlin, Germany). These parameters were used to determine the excretion rates of total solutes (UosmV), sodium (UNaV) and potassium (UKV). Commercially available ELISA kits were used to measure nitric oxide metabolites (NOx, SunRed, Shanghai) and albumin (Albumin, ICL, Portland) concentration in urine. Excretion rate of NOx (UNOxV) and albumin (UAE) were calculated.
# [4] = tested on: spontaneously hypertensive rats (SHR); experiment: Plasma and urine parameters during chronic treatment; conditions: mean ± SEM
# Description: as §1, §2, §3
# [5] = adult SHR (SHR-16), day 0 (baseline)
# [6] = adult SHR (SHR-16), day 7 of daily iv CH 2, RIY 7.5, VWIS 12.5 mg/kg/day
# [7] = adult SHR (SHR-16), day 7 of daily iv treatment
# [8] = adult SHR (SHR-16), day 14 of daily iv CH 2, RIY 7.5, VWIS 12.5 mg/kg/day
# [9] = adult SHR (SHR-16), day 14 of daily iv treatment
# [10] = young SHR (SHR-6), day 0 (baseline), CH n=8-10, RIY n=5, VWIS n=5-6
# [11] = young SHR (SHR-6), day 0 (baseline)
# [12] = young SHR (SHR-6), day 7 of daily iv CH 2, RIY 7.5, VWIS 12.5 mg/kg/day
# [13] = young SHR (SHR-6), day 7 of daily iv treatment
# [14] = young SHR (SHR-6), day 14 of daily iv CH 2, RIY 7.5, VWIS 12.5 mg/kg/day
# [15] = young SHR (SHR-6), day 14 of daily iv treatment
structure (smiles),measurement,setting,value
"CC(C)C[C@H](NC(=O)[C@@H](NC(=O)N[C@@H](Cc1ccccc1)C(=O)O)[C@@H]1CCN=C(N)N1)C(=O)N[C@H](C=O)Cc1ccccc1 [CH, chymostatin]",effect on systolic blood pressure (SBP) in adult SHR,"[1]; adult SHR (16 weeks old), daily iv for 14 days, CH 2, RIY 7.5, VWIS 12.5 mg/kg/day",no sustained decrease in arterial blood pressure; also recorded: significant increase in SBP
same,period of transient BP reduction post-infusion,"[1]; adult SHR, chronic intravenous infusion of chymostatin 2 mg/kg/day",≤ 7 h
same,effect on blood pressure (SBP) in young animals,"[1]; young SHR (6 weeks old), daily iv for 14 days, CH 2, RIY 7.5, VWIS 12.5 mg/kg/day",Neither of the inhibitors applied (chymostatin and the both rapeseed-derived peptides) affected blood pressure
same,left ventricular hypertrophy (LV/tibia),[2]; adult SHR,20.7 ± 2.6 mg/mm
same,left ventricular hypertrophy (LV/tibia),[2]; young SHR,16.7 ± 0.9 mg/mm
same,Body weight,"[3]; adult SHR (SHR-16), day 0 (baseline), CH n=8, RIY n=5-6, VWIS n=5-6",271 ± 16 g
same,Diuresis,[3]; [5],6.9 ± 1.9 µL/min
same,Faeces,[3]; [5],9±1 g/24 h
same,Food intake,[3]; [5],21±1 g/24 h
same,Water intake,[3]; [5],29±3 g/24 h
same,Body weight,[3]; [6],285 ± 17 g
same,Diuresis,[3]; [7],7.4 ± 2.1 µL/min
same,Faeces,[3]; [7],8±1 g/24 h
same,Food intake,[3]; [7],17±1 g/24 h
same,Water intake,[3]; [7],29±3 g/24 h
same,Body weight,[3]; [8],298 ± 19 g
same,Diuresis,[3]; [9],8.1 ± 2.9 µL/min
same,Faeces,[3]; [9],9±1 g/24 h
same,Food intake,[3]; [9],20±2 g/24 h
same,Water intake,[3]; [9],29±4 g/24 h
same,Body weight,[3]; [10],131 ± 10 g
same,Diuresis,[3]; [11],6.1 ± 0.5 µL/min
same,Faeces,[3]; [11],7±1 g/24 h
same,Food intake,[3]; [11],15±1 g/24 h
same,Water intake,[3]; [11],23±2 g/24 h
same,Body weight,[3]; [12],159 ± 5 g
same,Diuresis,[3]; [13],9.9 ± 1.4 µL/min
same,Faeces,[3]; [13],11±1 g/24 h
same,Food intake,[3]; [13],18±2 g/24 h
same,Water intake,[3]; [13],29±5 g/24 h
same,Body weight,[3]; [14],196 ± 4 g
same,Diuresis,[3]; [15],10.0 ± 0.9 µL/min
same,Faeces,[3]; [15],12±1 g/24 h
same,Food intake,[3]; [15],20±2 g/24 h
same,Water intake,[3]; [15],32±3 g/24 h
same,Plasma osmolality,"[4]; adult SHR (SHR-16), day 0 (baseline), CH n=5-8, RIY n=5-6, VWIS n=5-6",307±2 mOsm/l
same,Plasma K+ concentration,[4]; [5],4.39 ± 0.27 mmol/L
same,Plasma Na+ concentration,[4]; [5],134.6 ± 2.6 mmol/L
same,Potassium excretion,[4]; [5],1.28 ± 0.19 µmol/min
same,Sodium excretion,[4]; [5],1.01 ± 0.13 µmol/min
same,Total solute excretion,[4]; [5],7.05±0.90 µOsm/min
same,Plasma osmolality,[4]; [6],299±2 mOsm/l
same,Plasma K+ concentration,[4]; [7],4.21 ± 0.10 mmol/L
same,Plasma Na+ concentration,[4]; [7],130.5 ± 2.3 mmol/L
same,Potassium excretion,[4]; [7],1.24 ± 0.25 µmol/min
same,Sodium excretion,[4]; [7],0.77 ± 0.23 µmol/min
same,Total solute excretion,[4]; [7],7.11±1.34 µOsm/min
same,Plasma osmolality,[4]; [8],294±5 mOsm/l
same,Plasma K+ concentration,[4]; [9],3.95 ± 0.20 mmol/L
same,Plasma Na+ concentration,[4]; [9],126.1 ± 1.0 mmol/L
same,Potassium excretion,[4]; [9],1.71 ± 0.15 µmol/min
same,Sodium excretion,[4]; [9],1.11 ± 0.33 µmol/min
same,Total solute excretion,[4]; [9],7.04±1.15 µOsm/min
same,Plasma osmolality,[4]; [10],303±3 mOsm/l
same,Plasma K+ concentration,[4]; [11],4.34 ± 0.16 mmol/L
same,Plasma Na+ concentration,[4]; [11],125.8 ± 2.1 mmol/L
same,Potassium excretion,[4]; [11],0.48 ± 0.08 µmol/min
same,Sodium excretion,[4]; [11],0.51 ± 0.09 µmol/min
same,Total solute excretion,[4]; [11],2.94±0.68 µOsm/min
same,Plasma osmolality,[4]; [12],297±3 mOsm/l
same,Plasma K+ concentration,[4]; [13],4.61 ± 0.12 mmol/L
same,Plasma Na+ concentration,[4]; [13],126.0 ± 2.3 mmol/L
same,Potassium excretion,[4]; [13],0.95 ± 0.12 µmol/min
same,Sodium excretion,[4]; [13],0.90 ± 0.12 µmol/min
same,Total solute excretion,[4]; [13],6.05±1.16 µOsm/min
same,Plasma osmolality,[4]; [14],295±6 mOsm/l
same,Plasma K+ concentration,[4]; [15],3.98 ± 0.13 mmol/L
same,Plasma Na+ concentration,[4]; [15],126.0 ± 1.6 mmol/L
same,Potassium excretion,[4]; [15],1.01 ± 0.60 µmol/min
same,Sodium excretion,[4]; [15],0.93 ± 0.47 µmol/min
same,Total solute excretion,[4]; [15],7.82±0.47 µOsm/min
